Source: the NIST ThermoML archive (doi:10.1016/j.jct.2012.05.006)

Details: 101.33 kPa, Liquid, Vibrating tube method

CCCCCCCC[n+]1ccn(C)c1.N#C[S-] [1-methyl-3-octyl-1H-imidazolium thiocyanate]
Details | mass density [kg/m3]
288.15 K | 1014
293.15 K | 1011.1
298.15 K | 1008.3
303.15 K | 1005.4
308.15 K | 1002.6
313.15 K | 999.7
318.15 K | 996.7
323.15 K | 994.1
328.15 K | 991.3
333.15 K | 988.4
338.15 K | 985.6
343.15 K | 982.9
